Results from article PMC6704710, “Preclinical evaluation of 3D185, a novel potent inhibitor of FGFR1/2/3 and CSF-1R, in FGFR-dependent and macrophage-dominant cancer models” (Journal of Experimental & Clinical Cancer Research : CR, 2019).

Key:
Experiment in all cases: Eurofins kinase panel
Assay type in all cases: biochemical
Settings in all cases: read-out: Inhibition rate (%)
cKit(D816V)(h) = target: T1, cKit(D816V)(h) (Homo sapiens, UniProt P10721, D816V)
T1 construct: purchased Eurofins (KinaseProfiler)
T1 sequence (P10721 26-976 D816V): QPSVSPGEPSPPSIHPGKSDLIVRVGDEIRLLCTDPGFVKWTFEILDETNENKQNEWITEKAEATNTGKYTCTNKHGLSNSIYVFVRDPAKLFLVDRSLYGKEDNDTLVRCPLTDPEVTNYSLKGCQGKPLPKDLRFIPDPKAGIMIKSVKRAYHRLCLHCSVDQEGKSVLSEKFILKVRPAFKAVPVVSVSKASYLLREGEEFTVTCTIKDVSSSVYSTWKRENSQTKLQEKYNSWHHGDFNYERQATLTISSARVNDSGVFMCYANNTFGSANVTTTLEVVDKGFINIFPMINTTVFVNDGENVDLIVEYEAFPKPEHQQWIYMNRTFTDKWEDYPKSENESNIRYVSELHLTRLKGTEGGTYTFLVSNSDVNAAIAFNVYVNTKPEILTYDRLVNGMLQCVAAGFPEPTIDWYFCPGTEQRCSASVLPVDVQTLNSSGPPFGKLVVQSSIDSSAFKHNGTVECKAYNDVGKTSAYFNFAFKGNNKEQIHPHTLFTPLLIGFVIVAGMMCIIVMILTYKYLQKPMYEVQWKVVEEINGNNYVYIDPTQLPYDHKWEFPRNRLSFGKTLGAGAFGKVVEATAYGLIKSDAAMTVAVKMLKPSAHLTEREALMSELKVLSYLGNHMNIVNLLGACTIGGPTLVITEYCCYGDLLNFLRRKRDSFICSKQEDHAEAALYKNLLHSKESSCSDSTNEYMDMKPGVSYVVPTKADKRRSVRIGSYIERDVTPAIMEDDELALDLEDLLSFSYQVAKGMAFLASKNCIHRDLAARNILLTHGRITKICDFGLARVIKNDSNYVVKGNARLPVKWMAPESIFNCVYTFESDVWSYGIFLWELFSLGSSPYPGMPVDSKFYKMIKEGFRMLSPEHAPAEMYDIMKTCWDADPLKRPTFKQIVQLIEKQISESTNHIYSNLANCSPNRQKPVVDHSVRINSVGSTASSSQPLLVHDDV
Method: (§1) Active FGFR1–4, VEGFR1, KDR, VEGFR3, PDGFRα and PDGFRβ proteins were purchased from Eurofins (Fremont, United States), and kinase activity was assessed using ELISA, as previously reported. […]. Increasing concentrations of ATP were diluted for the kinase reaction in the ATP competition assay. CSF-1R kinase activity was analyzed using the Z’-LYTE™ Kinase Assay Kit (Thermo Fisher, United States). The assay formats are described in the SelectScreen Kinase Profiling Service Zlyte protocol. IC50 values were calculated by dose-response curve fitting using Prism (Graph Pad).

PI3KC2α(h) = target: T2, PI3KC2α(h) (Homo sapiens, UniProt O00443)
T2 construct: purchased Eurofins (KinaseProfiler)
T2 sequence (O00443 whole entry): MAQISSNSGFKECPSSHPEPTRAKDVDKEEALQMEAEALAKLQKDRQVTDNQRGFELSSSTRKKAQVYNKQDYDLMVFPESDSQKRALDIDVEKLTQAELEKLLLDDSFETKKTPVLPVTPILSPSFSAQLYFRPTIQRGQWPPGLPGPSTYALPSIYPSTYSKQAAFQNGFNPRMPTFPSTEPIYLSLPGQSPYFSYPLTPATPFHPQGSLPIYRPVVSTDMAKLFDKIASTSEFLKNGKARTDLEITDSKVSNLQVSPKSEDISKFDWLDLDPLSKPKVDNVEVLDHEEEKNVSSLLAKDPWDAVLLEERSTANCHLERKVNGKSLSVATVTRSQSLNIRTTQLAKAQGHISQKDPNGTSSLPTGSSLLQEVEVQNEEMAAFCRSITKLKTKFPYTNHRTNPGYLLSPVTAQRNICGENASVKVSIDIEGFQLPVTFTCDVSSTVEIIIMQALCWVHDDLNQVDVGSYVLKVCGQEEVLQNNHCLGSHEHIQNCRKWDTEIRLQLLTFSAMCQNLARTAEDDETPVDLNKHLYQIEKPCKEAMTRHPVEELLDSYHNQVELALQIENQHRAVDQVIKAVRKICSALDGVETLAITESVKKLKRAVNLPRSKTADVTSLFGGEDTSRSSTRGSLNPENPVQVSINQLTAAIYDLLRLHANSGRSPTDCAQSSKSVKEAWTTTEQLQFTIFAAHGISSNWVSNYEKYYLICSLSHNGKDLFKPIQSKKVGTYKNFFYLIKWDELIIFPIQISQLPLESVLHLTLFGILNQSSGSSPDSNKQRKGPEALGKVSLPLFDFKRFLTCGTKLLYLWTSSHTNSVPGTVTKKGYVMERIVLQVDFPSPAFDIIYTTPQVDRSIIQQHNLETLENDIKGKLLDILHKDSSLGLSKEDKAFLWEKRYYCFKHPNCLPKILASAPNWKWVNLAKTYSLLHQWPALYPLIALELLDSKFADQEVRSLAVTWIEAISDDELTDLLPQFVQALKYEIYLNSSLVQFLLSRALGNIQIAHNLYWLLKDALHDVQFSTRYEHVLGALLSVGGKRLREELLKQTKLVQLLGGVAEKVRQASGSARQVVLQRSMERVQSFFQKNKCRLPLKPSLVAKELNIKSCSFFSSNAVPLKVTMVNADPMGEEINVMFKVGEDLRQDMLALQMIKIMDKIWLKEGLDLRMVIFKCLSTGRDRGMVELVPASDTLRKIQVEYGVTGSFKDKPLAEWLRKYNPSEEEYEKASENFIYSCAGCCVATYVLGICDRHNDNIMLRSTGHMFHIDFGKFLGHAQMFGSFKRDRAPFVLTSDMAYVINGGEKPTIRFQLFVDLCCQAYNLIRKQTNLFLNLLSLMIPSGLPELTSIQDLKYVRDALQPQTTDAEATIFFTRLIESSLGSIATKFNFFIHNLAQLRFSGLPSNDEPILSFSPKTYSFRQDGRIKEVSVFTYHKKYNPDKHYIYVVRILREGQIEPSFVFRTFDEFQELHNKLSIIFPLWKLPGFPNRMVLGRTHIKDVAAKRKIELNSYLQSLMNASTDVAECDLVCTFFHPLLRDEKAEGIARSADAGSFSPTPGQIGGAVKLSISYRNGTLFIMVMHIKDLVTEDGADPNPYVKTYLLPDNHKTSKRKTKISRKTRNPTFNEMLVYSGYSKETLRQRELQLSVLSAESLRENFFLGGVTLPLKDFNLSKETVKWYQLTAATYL
Method: as §1

A-Raf(h) = target: T3, A-Raf(h) (Homo sapiens, UniProt P10398)
T3 construct: purchased Eurofins (KinaseProfiler)
T3 sequence (P10398 1-606): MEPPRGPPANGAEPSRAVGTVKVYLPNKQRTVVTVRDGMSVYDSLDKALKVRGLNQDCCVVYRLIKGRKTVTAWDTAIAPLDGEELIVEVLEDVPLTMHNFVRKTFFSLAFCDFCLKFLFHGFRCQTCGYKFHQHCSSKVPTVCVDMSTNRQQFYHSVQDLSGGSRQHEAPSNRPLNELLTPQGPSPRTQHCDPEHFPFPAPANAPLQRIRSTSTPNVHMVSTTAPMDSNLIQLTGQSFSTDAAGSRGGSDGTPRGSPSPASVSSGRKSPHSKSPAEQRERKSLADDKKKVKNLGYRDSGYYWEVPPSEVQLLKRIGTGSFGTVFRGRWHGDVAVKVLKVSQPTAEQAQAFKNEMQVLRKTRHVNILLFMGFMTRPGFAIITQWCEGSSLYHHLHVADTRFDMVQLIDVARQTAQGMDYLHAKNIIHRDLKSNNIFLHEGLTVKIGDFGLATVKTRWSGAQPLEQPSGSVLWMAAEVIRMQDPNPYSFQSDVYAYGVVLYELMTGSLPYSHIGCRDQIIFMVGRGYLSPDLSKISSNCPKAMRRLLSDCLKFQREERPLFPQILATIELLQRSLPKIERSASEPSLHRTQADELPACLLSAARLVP
Method: as §1

Flt3(h) = target: T4, Flt3(h) (Homo sapiens, UniProt P36888)
T4 construct: purchased Eurofins (KinaseProfiler)
T4 sequence (P36888 27-993): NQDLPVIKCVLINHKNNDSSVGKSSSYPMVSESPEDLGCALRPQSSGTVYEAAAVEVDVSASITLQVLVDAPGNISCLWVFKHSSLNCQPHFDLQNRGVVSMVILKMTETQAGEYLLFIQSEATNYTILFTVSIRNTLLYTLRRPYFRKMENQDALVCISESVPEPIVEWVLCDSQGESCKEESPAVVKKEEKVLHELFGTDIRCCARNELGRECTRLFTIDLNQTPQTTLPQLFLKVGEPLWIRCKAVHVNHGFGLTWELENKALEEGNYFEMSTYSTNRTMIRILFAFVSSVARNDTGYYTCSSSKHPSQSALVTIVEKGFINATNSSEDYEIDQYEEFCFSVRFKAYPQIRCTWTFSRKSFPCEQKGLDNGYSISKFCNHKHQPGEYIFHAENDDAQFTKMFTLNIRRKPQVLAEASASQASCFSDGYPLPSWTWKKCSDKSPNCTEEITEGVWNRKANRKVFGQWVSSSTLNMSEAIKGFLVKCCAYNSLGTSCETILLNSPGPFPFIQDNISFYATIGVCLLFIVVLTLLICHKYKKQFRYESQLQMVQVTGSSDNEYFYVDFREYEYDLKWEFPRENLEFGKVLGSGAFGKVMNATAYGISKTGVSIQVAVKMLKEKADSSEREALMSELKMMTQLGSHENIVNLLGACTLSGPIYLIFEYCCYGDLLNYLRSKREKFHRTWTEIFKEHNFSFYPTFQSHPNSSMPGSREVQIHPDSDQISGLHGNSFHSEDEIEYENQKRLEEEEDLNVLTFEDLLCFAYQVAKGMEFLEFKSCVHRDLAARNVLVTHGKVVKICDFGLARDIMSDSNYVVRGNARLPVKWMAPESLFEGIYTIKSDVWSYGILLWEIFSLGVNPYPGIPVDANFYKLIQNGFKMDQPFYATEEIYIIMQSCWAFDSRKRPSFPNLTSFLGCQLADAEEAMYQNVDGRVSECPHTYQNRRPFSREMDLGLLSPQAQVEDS
Method: as §1

Src(1-530)(h) = target: T5, Src(1-530)(h) (Homo sapiens, UniProt P12931)
T5 construct: purchased Eurofins (KinaseProfiler)
T5 sequence (P12931 1-530 limits assumed): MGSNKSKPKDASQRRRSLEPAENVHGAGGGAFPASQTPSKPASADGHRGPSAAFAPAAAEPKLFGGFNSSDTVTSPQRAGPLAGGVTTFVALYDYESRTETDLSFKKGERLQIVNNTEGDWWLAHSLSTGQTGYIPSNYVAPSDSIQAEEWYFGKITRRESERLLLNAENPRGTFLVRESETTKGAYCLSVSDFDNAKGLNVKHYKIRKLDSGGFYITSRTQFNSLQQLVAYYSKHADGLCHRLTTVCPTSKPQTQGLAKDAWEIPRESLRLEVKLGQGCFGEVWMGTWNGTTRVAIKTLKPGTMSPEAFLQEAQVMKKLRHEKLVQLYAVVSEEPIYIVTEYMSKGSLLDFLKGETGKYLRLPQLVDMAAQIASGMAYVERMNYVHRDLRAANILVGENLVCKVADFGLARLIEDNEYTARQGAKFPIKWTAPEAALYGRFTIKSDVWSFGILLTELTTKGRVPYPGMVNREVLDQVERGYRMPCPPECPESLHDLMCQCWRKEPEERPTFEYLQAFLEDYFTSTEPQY
Method: as §1

MSSK1(h) = target: T6, MSSK1(h) (Homo sapiens, UniProt Q9UPE1)
T6 construct: purchased Eurofins (KinaseProfiler)
T6 sequence (Q9UPE1 whole entry): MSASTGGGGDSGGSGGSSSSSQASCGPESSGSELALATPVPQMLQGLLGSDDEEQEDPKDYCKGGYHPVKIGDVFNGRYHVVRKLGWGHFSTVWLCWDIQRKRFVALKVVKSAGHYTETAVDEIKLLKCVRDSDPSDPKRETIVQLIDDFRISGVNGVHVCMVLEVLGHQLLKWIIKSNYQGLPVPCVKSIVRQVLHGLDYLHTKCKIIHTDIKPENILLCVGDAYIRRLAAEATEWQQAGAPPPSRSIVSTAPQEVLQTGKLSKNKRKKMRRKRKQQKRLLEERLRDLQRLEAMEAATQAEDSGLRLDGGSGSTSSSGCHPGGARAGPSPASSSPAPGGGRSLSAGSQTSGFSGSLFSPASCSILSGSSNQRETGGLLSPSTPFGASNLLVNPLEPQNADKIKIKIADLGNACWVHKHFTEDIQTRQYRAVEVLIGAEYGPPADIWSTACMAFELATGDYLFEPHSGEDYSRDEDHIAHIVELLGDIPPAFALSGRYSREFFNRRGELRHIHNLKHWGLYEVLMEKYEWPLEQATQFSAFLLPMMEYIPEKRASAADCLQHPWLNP
Method: as §1

PAK4(h) = target: T7, PAK4(h) (Homo sapiens, UniProt O96013)
T7 construct: purchased Eurofins (KinaseProfiler)
T7 sequence (O96013 whole entry): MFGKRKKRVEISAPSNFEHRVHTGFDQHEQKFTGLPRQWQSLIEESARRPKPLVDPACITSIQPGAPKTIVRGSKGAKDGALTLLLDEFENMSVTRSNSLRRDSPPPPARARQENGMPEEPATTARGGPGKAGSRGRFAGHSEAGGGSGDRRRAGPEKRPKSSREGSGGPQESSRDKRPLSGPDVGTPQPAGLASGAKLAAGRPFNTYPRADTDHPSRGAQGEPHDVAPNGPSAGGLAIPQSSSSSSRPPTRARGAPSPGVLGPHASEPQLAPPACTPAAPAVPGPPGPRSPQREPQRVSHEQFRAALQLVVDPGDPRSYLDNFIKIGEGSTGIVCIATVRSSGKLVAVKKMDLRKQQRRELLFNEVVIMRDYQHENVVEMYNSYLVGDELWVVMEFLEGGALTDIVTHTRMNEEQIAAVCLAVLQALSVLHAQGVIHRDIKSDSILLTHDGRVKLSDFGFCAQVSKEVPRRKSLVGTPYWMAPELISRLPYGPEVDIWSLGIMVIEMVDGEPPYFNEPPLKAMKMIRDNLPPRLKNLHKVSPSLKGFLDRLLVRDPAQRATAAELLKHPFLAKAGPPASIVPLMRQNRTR
Method: as §1

COc1cc(OC)c(Cl)c(-c2ccc3c(NC(=O)c4ccc(N5CCNC(C)(C)C5)cc4)n[nH]c3n2)c1Cl [3D185]
inhibition at 0.01 µM (cKit(D816V)(h); 10 nM): -7% | inhibition at 0.1 µM (cKit(D816V)(h); 100 nM): 1% | inhibition at 1 µM (cKit(D816V)(h); 1000 nM): 3% | inhibition at 0.01 µM (PI3KC2α(h); 10 nM): -5% | inhibition at 0.1 µM (PI3KC2α(h); 100 nM): 1% | inhibition at 1 µM (PI3KC2α(h); 1000 nM): 1% | inhibition at 0.01 µM (A-Raf(h); 10 nM): -7% | inhibition at 0.1 µM (A-Raf(h); 100 nM): -7% | inhibition at 1 µM (A-Raf(h); 1000 nM): -4% | inhibition at 0.01 µM (Flt3(h); 10 nM): 10% | inhibition at 0.1 µM (Flt3(h); 100 nM): 17% | inhibition at 1 µM (Flt3(h); 1000 nM): 27% | inhibition at 0.01 µM (Src(1-530)(h); 10 nM): 4% | inhibition at 0.1 µM (Src(1-530)(h); 100 nM): 30% | inhibition at 1 µM (Src(1-530)(h); 1000 nM): 82% | inhibition at 0.01 µM (MSSK1(h); 10 nM): 3% | inhibition at 0.1 µM (MSSK1(h); 100 nM): 11% | inhibition at 1 µM (MSSK1(h); 1000 nM): 18% | inhibition at 0.01 µM (PAK4(h); 10 nM): -8% | inhibition at 0.1 µM (PAK4(h); 100 nM): 0% | inhibition at 1 µM (PAK4(h); 1000 nM): -2%
